# Source: article PMC10526447 (Biomolecules, 2023)
# Read-outs that look alike come from different tables or passages of the source. Positions of bridges follow the written chain, without caps; N, C: chain ends. No end group written: not given here.
# Columns and labels:
# SARS-CoV-2 PsV = settings: 48 h
# SARS-CoV S protein = SARS-CoV S protein (Severe acute respiratory syndrome coronavirus, UniProt P59594); test: cell-based
# HCoV-229E S protein = HCoV-229E S protein (Human coronavirus 229E, UniProt P15423); test: cell-based
# Pseudotyped WIV1-CoV = settings: 48 h
# live HCoV-229E = settings: 8 h
# Pseudotyped MERS-CoV [1] = settings: 48 h
# Pseudotyped HCoV-OC43 = settings: 48 h
# Pseudotyped HCoV-NL63 [2] = settings: 48 h
# Pseudotyped SARS-CoV-2 [3] = settings: 48 h
# Pseudotyped MERS-CoV [4] = settings: 48 h; remark: listed apart in the source
# Pseudotyped HCoV-229E = settings: 48 h
# live HCoV-OC43 = settings: 8 h
# Pseudotyped SARS-CoV [5] = settings: 48 h
# SARS-CoV-2 S protein [6] = target: T1, SARS-CoV-2 S protein (Severe acute respiratory syndrome coronavirus 2, UniProt P0DTC2); test: cell-based; settings: IC50 against Cell-Cell Fusion Mediated by S Proteins of CoVs
# Pseudotyped HCoV-NL63 [7] = settings: 48 h; remark: listed apart in the source
# MERS-CoV S protein = MERS-CoV S protein (Middle East respiratory syndrome-related coronavirus, UniProt K9N5Q8); test: cell-based
# Pseudotyped SARS-CoV [8] = settings: 48 h; remark: listed apart in the source
# HCoV-NL63 S protein = HCoV-NL63 S protein (Human coronavirus NL63, UniProt Q6Q1S2); test: cell-based
# HCoV-OC43 S protein = HCoV-OC43 S protein (Human coronavirus OC43, UniProt P36334); test: cell-based
# Pseudotyped SARS-CoV-2 [9] = settings: 48 h; remark: listed apart in the source
# [10] = target: SARS-CoV-2 HR1 peptide (SARS-CoV-2)
# [11] = target: human immunoglobulin G (IgG) (human); test: BLI
# in vitro = settings: human, Caco-2, Calu-3, RD and Huh-7 cells
# SARS-CoV-2 S protein [12] = target: T1, SARS-CoV-2 S protein; test: cell-based
# SARS-CoV PsV = settings: rhesus monkey, in vivo
# [13] = rhesus monkey, in vivo, iv, 10 mg/kg
# [14] = mouse, in vivo, 50 mg/kg
# proteinase K = proteinase K (Parengyodontium album, UniProt P06873)
# [15] = tested on: pseudotyped SARS-CoV-2 VOCs; settings: 48 h
# in vivo = settings: rhesus monkey, iv, 10 mg/kg
# [16] = tested on: Caco-2, Calu-3, RD and Huh-7 cells; settings: 24 h
# HCoV-OC43 = type: in vivo, ICR mice (newborn)
# WIV1-CoV S protein = type: cell-based; settings: read-out: IC50 against Cell-Cell Fusion Mediated by S Proteins of CoVs
# SARS-CoV-2 HR1P = SARS-CoV-2 HR1P (Severe acute respiratory syndrome coronavirus 2, UniProt P0DTC2); type: physicochemical; settings: pH 7.2
# [17] = in vivo; cited from earlier work
# Chain of proteinase K (P06873 106-384): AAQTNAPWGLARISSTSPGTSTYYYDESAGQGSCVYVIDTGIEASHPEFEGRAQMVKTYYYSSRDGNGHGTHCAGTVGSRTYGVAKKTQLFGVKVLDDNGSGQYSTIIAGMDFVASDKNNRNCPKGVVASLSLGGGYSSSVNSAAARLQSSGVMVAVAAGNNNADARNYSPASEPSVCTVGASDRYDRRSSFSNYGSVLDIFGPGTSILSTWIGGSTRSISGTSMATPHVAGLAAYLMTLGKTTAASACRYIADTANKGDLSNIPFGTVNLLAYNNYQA
compound,measurement,setting,value
SLDQINVTFLDLEYEMKKLEEAIKKLEESYIDLKELDCAWHLGELVWCT (disulfide 38-48) [EK1-IBP],IC50,SARS-CoV-2 PsV,1180 nM
CC(C)C[C@@H]1NC(=O)[C@H](Cc2c[nH]cn2)NC(=O)[C@H](Cc2c[nH]c3ccccc23)NC(=O)[C@H](C)NC(=O)[C@@H](NC(=O)[C@@H](N)CC(=O)O)CSSC[C@@H](C(=O)N[C@H](C(=O)O)[C@@H](C)O)NC(=O)[C@H](Cc2c[nH]c3ccccc23)NC(=O)[C@H](C(C)C)NC(=O)[C@H](CC(C)C)NC(=O)[C@H](CCC(=O)O)NC(=O)CNC1=O [IBP],IC50,SARS-CoV S protein,> 50000 nM
same,IC50,HCoV-229E S protein,> 50000 nM
same,IC50,Pseudotyped WIV1-CoV,> 50000 nM
same,IC50,live HCoV-229E,> 50000 nM
same,IC50,Pseudotyped MERS-CoV [1],> 50000 nM
same,IC50,Pseudotyped HCoV-OC43,> 50000 nM
same,IC50,Pseudotyped HCoV-NL63 [2],> 50000 nM
same,IC50,Pseudotyped SARS-CoV-2 [3],> 50000 nM
same,IC50,Pseudotyped MERS-CoV [4],> 50000 nM
same,IC50,Pseudotyped HCoV-229E,> 50000 nM
same,IC50,live HCoV-OC43,> 50000 nM
same,IC50,Pseudotyped SARS-CoV [5],> 50000 nM
same,IC50,SARS-CoV-2 S protein [6],> 100000 nM
same,IC50,Pseudotyped HCoV-NL63 [7],> 50000 nM
same,IC50,MERS-CoV S protein,> 50000 nM
same,IC50,Pseudotyped SARS-CoV [8],> 50000 nM
same,IC50,HCoV-NL63 S protein,> 50000 nM
same,IC50,SARS-CoV-2 PsV,> 100000 nM
same,IC50,HCoV-OC43 S protein,> 50000 nM
same,IC50,Pseudotyped SARS-CoV-2 [9],> 50000 nM
EK1 (peptide),IC50 against pseudotyped SARS-CoV-2 infection of Caco-2 cells,[10],590 nM
same,IC50 against pseudotyped SARS-CoV-2 infection of Calu-3 cells,[10],253 nM
human immunoglobulin G Fc-binding peptide (IBP),Kd,[11],1030 nM
IBP-EK1 (peptide),Kd,[11],217 nM
same,IC50 against pseudotyped SARS-CoV-2 infection of Caco-2 cells,[10],512 nM
same,IC50 against pseudotyped SARS-CoV-2 infection of Calu-3 cells,[10],180 nM
DCAWHLGELVWCTSLDQINVTFLDLEYEMKKLEEAIKKLEESYIDLKEL (disulfide 2-12) [IBP-EK1],IC50,SARS-CoV S protein,229 nM
same,IC50,HCoV-229E S protein,478 nM
same,IC50,Pseudotyped WIV1-CoV,6050 nM
same,IC50,live HCoV-229E,4140 nM
same,CC50 at 48 h,in vitro,> 100000 nM
same,IC50,SARS-CoV-2 S protein [12],325 nM
same,IC50,Pseudotyped HCoV-OC43,3570 nM
same,IC50,Pseudotyped HCoV-229E,3340 nM
same,half-life relative to that of EK1,SARS-CoV PsV,about 21 fold
same,AUC,"SARS-CoV PsV; iv, 10 mg/kg",5228.98 µg·h/mL
same,Cmax,"SARS-CoV PsV; iv, 10 mg/kg",116.09 µg/mL
same,Tmax,"SARS-CoV PsV; iv, 10 mg/kg",2 h
same,t1/2,"SARS-CoV PsV; iv, 10 mg/kg",39.72 h
same,IC50,live HCoV-OC43,744 nM
same,AUC,[13],2207.03 µg·h/mL
same,ALT level in sera,[14],in the normal range
same,IBP-EK1-specific antibodies in sera (immunogenicity),[14],no IBP-EK1-specific antibodies were detected
same,body weight changes,[14],weight changes similar to those of the PBS-treated group
same,creatinine level in sera,[14],in the normal range
same,"histopathology of lungs, livers and kidneys (H&E)",[14],no pathological abnormalities in their organs
same,IC50,SARS-CoV-2 S protein [6],512 nM
same,IC50,MERS-CoV S protein,376 nM
same,IC50,HCoV-NL63 S protein,212 nM
same,residual inhibitory activity against SARS-CoV-2 PsV after proteinase K treatment,proteinase K,significantly better inhibitory activities than those of EK1
same,IC50,SARS-CoV-2 PsV,788 nM
same,IC50,[15],171 to 296 nM
same,Cmax,in vivo,51.7 µg/mL
same,Tmax,in vivo,2 h
same,half-life,in vivo,37.7 h
same,level at 24 h,in vivo,~24 µg/mL
same,residual inhibitory activity against SARS-CoV-2 PsV after trypsin treatment,trypsin,significantly better inhibitory activities than those of EK1
same,IC50,HCoV-OC43 S protein,829 nM
same,selectivity index (SI = CC50/IC50),[16],more than 100
same,IC50,Pseudotyped SARS-CoV-2 [9],180 nM
CC[C@H](C)[C@H](NC(=O)[C@H](C)NC(=O)[C@H](CCC(=O)O)NC(=O)[C@H](CCC(=O)O)NC(=O)[C@H](CC(C)C)NC(=O)[C@H](CCCCN)NC(=O)[C@H](CCCCN)NC(=O)[C@H](CCSC)NC(=O)[C@H](CCC(=O)O)NC(=O)[C@H](Cc1ccc(O)cc1)NC(=O)[C@H](CCC(=O)O)NC(=O)[C@H](CC(C)C)NC(=O)[C@H](CC(=O)O)NC(=O)[C@H](CC(C)C)NC(=O)[C@H](Cc1ccccc1)NC(=O)[C@@H](NC(=O)[C@@H](NC(=O)[C@H](CC(N)=O)NC(=O)[C@@H](NC(=O)[C@H](CCC(N)=O)NC(=O)[C@H](CC(=O)O)NC(=O)[C@H](CC(C)C)NC(=O)[C@@H](N)CO)[C@@H](C)CC)C(C)C)[C@@H](C)O)C(=O)N[C@@H](CCCCN)C(=O)N[C@@H](CCCCN)C(=O)N[C@@H](CC(C)C)C(=O)N[C@@H](CCC(=O)O)C(=O)N[C@@H](CCC(=O)O)C(=O)N[C@@H](CO)C(=O)N[C@@H](Cc1ccc(O)cc1)C(=O)N[C@H](C(=O)N[C@@H](CC(=O)O)C(=O)N[C@@H](CC(C)C)C(=O)N[C@@H](CCCCN)C(=O)N[C@@H](CCC(=O)O)C(=O)N[C@@H](CC(C)C)C(=O)O)[C@@H](C)CC [EK1],"protection (survival), prophylactic","HCoV-OC43; 3-day-old suckling mice, 10 mg/kg intranasal single dose 1 h before HCoV-OC43 (100 TCID50) challenge",100%
same,"viral loads in mouse brain, therapeutic group","HCoV-OC43; day 5 post challenge, 10 mg/kg intranasal 1 h after challenge, vs viral control",significantly different from those of viral control group
same,"viral loads in mouse brain, prophylactic group","HCoV-OC43; day 5 post challenge, 10 mg/kg intranasal 1 h before challenge, relative RNA quantification vs viral control",very low
same,IC50,Pseudotyped WIV1-CoV,6980 nM
same,IC50,live HCoV-229E,7590 nM
same,IC50,WIV1-CoV S protein,588 nM
same,Tm of complex with SARS-CoV-2 HR1P,SARS-CoV-2 HR1P,51.05 °C
same,IC50,Pseudotyped HCoV-OC43,3610 nM
same,IC50,Pseudotyped HCoV-229E,3480 nM
same,ex vivo inhibition of SARS-CoV PsV by serum (fold of its IC50),"SARS-CoV PsV; iv, 10 mg/kg",below 450 fold
same,t1/2,"SARS-CoV PsV; iv, 10 mg/kg",1.77 h
same,IC50,live HCoV-OC43,764 nM
same,IC50,SARS-CoV-2 PsV,791 nM
same,t1/2 (reported value),[17],1.8 h
same,IC50,Pseudotyped SARS-CoV-2 [9],253 nM
SLDQINVTFLDLEYEMKKLEEAIKKLEESYIDLKELGGSDCAWHLGELVWCT (disulfide 41-51) [EK1-L-IBP],IC50,SARS-CoV-2 PsV,1170 nM
DCAWHLGELVWCTGGSSLDQINVTFLDLEYEMKKLEEAIKKLEESYIDLKEL (disulfide 2-12) [IBP-L-EK1],IC50,SARS-CoV-2 PsV,806 nM
